Experimental data taken from patent publication US12377100B2 (GILEAD SCIENCES, INC., priority 2015, dated 2025).

Tests used:
Type in all cases: cell-based
Details in all cases: human PBMCs, 24 hours incubation
IL12p40 = experiment: PBMC cytokine profiling assay, IL12-p40 induction
Description: (§1) Certain compounds disclosed herein we tested according to the procedure described below. Additionally, certain reference compounds were prepared and tested along with the compounds of the present disclosure.
(§2) Compounds were dissolved and stored in DMSO (Sigma-Aldrich, St. Louis, MO) at 10 mM concentration.
(§3) Cryopreserved human PBMCs isolated from healthy donors were purchased from StemCell Technologies (Vancouver, Canada). Cell culture medium used was RPMI with L-Glutamine (Mediatech, Manassas, VA) supplemented with 10% fetal bovine serum (Hyclone, GE Healthcare, Logan, UT) and Penicillin-Streptomycin (Mediatech). Human TNFα, IL12p40, and IFNα2a 384-well Assay capture plates, standards, buffers and processing reagents were obtained from MesoScale Discovery Technologies (MSD; Rockville, MD).
(§4) Cryopreserved human PBMCs (1×10e8 cells/ml) were thawed at 37° C. and resuspended in 25 mL warm cell culture medium. The cells were pelleted at 200×g (Beckman Avanti J-E) for 5 min and resuspended in 20 mL of fresh culture media. Cells were counted using a Cellometer (Nexcelcom Bioscience), adjusted to 2×10e6 cells, and incubated for 2 hours in an incubator set at 37° C., 5% CO2 to recover from cryopreservation. Compounds were serially diluted in DMSO at half-log steps to generate a 10-point dose range. Using a Bravo pipette equipped with a 384 well head (Agilent), 0.4 μL of compound was transferred to each well of a 384 well black, clear bottom plate (Greiner Bio-One, Germany) containing 30 μL of cell culture medium. Recovered PBMCs were then dispensed into the assay plate at 50 μL per well (100k cells/well) using the MicroFlow multichannel dispenser (Biotek). Final DMSO concentration was 0.5%. DMSO was used as the negative control. The plates were incubated for 24 hours at 37° C. PBMCs in the assay plate were pelleted by centrifugation (Beckman Avanti J-E) at 200×g for 5 min.
(§5) Using a Biomek FX 384 well pipetting station (Beckman), conditioned culture medium (CCM) from the assay plate was transferred to MSD capture plates customized for each cytokine. For IFNα and IL12-p40 detection, 25 μL and 20 μL of CCM were added directly to each capture plate, respectively. For TNFα detection, CCM was diluted 1:9 in fresh culture medium, and 20 μL of diluted CCM was used. Serially diluted calibration standards for each cytokine were used to generate standard curves and establish assay linearity. The plates were sealed and incubated overnight at 4° C. in a plate shaker (Titer Plate) set at 200 rpm. On the following day, antibodies specific for each cytokine were diluted 1:50 in MSD Diluent 100 antibody dilution buffer. Diluted antibodies were added to corresponding capture plates at 10 μL/well, and incubated at RT for 1-2 hrs in the shaker. The plates were washed with PBST buffer (3×, 60 μl/well) using a Biotek Multiflow plate washer. MSD Read Buffer diluted to 2× in deionized water and 35 μL/well was added via Biomek FX instrument. The plates were read immediately in a MSD6000 reader. Data were normalized to positive and negative controls in each assay plate. AC50 values represent compound concentrations at half-maximal effect based on normalized percent activation and calculated by non-linear regression using Pipeline Pilot software (Accelrys, San Diego, CA).

IFNα = experiment: PBMC cytokine profiling assay, IFNα induction
Description: as §1, §2, §3, §4, §5

TNFα = experiment: PBMC cytokine profiling assay, TNFα induction
Description: as §1, §2, §3, §4, §5

| SMILES | AC50 (IL12p40; Homo sapiens, PBMC, 24 h) [µM] | AC50 (IFNα; Homo sapiens, PBMC, 24 h) [µM] | AC50 (TNFα; Homo sapiens, PBMC, 24 h) [µM] | AC50 (IL12p40) [µM] | AC50 (IFNα) [µM] | AC50 (TNFα) [µM] |
| --- | --- | --- | --- | --- | --- | --- |
| CCC[C@H](Nc1nc(N)nc2cccnc12)C(F)(F)F [Example 28, (S)—N^4-(1,1,1-trifluoropentan-2-yl)pyrido[3,2-d]pyrimidine-2,4-diamine] | 28.2 | 45 | 28.6 |  |  |  |
| CCC[C@H](Nc1nc(N)nc2cccnc12)C(=O)NCCN [Example 36, (S)—N-(2-aminoethyl)-2-((2-aminopyrido[3,2-d]pyrimidin-4-yl)amino)pentanamide] | 10.8 | > 50 | 21.5 |  |  |  |
| CCCC[C@@H](Nc1nc(N)nc2cccnc12)[C@H](C)O [Example 86] |  |  |  | 2.4 | 37.4 | 2.9 |
| Nc1nc(N[C@H](CO)c2ccccc2)c2ncccc2n1 [Example 7, (S)-2-((2-aminopyrido[3,2-d]pyrimidin-4-yl)amino)-2-phenylethanol] | > 50 | 34 | > 50 |  |  |  |
| CCC[C@H](Nc1nc(N)nc2cccnc12)C(=O)NCCO [Example 34, (S)-2-((2-aminopyrido[3,2-d]pyrimidin-4-yl)amino)-N-(2-hydroxyethyl)pentanamide] | 10.9 | > 50 | 12.2 |  |  |  |
| CCCCC[C@](C)(CNC(C)=O)Nc1nc(N)nc2cc(Cl)cnc12 [Example 117, (R)—N-(2-((2-amino-7-chloropyrido[3,2-d]pyrimidin-4-yl)amino)-2-methylheptyl)acetamide] | 0.33 | > 50 | 0.37 |  |  |  |
| CCC[C@@H](CO)Nc1nc(N)nc2cc(C#N)cnc12 [Example 22, (S)-2-amino-4-((1-hydroxypentan-2-yl)amino)pyrido[3,2-d]pyrimidine-7-carbonitrile] | > 50 | 35.9 | > 50 |  |  |  |
| CCCC[C@@H](Nc1nc(N)nc2cccnc12)C(O)CF (single isomer, unassigned) [Example 88] | 0.37 | 35.6 | 0.4 |  |  |  |
| CCCC[C@@H](Nc1nc(N)nc2cccnc12)c1ncc[nH]1 [Example 55, (R)—N^4-(1-(1H-imidazol-2-yl)pentyl)pyrido[3,2-d]pyrimidine-2,4-diamine] | 21.5 | 28.8 | 23.9 |  |  |  |
| CCCC[C@@H](CO)Nc1nc(N)nc2ccccc12 [Example 48, (S)-2-((2-aminoquinazolin-4-yl)amino)hexan-1-ol] | 0.71 | 0.57 | 0.85 |  |  |  |
| CCC[C@@H](CO)Nc1nc(N)nc2cc(Cl)cnc12 [Example 19E, (S)-2-((2-amino-7-chloropyrido[3,2-d]pyrimidin-4-yl)amino)pentan-1-ol] | 2.5 | 21.6 | 3.3 |  |  |  |
| CCCC[C@@H](CO)Nc1nc(N)nc2cc(F)cnc12 [Example 45, (S)-2-((2-amino-7-fluoropyrido[3,2-d]pyrimidin-4-yl)amino)hexan-1-ol] | 1.3 | 8.3 | 1.6 |  |  |  |
| CCC[C@@H](CO)Nc1nc(N)nc2c(Cl)cc(C)nc12 [Example 6B, (S)-2-((2-amino-8-chloro-6-methylpyrido[3,2-d]pyrimidin-4-yl)amino)pentan-1-ol] | > 50 | > 50 | > 50 |  |  |  |
| CCCC[C@@H](CO)Nc1nc(N)nc2ccc(C)nc12 [Example 40C, (S)-2-((2-amino-6-methylpyrido[3,2-d]pyrimidin-4-yl)amino)hexan-1-ol] | 0.87 | 2.4 | 0.94 |  |  |  |
| C=C(C)CC[C@H](CO)Nc1nc(N)nc2cccnc12 [Example 77, (R)-2-((2-aminopyrido[3,2-d]pyrimidin-4-yl)amino)-5-methylhex-5-en-1-ol] | 43.6 | 43.6 | 43.6 |  |  |  |
| CCCC[C@H](CO)Nc1nc(N)nc2cc(CC)cnc12 [Example 71, (R)-2-((2-amino-7-ethylpyrido[3,2-d]pyrimidin-4-yl)amino)hexan-1-ol] | 2.7 | > 50 | 2.6 |  |  |  |
| CCCC[C@@](C)(Nc1nc(N)nc2cc(F)cnc12)C(C)O (single isomer, unassigned) [Example 94] |  |  |  | 0.7 | 2.2 | 1 |
| CCC[C@H](Nc1nc(N)nc2cccnc12)C(=O)OC [Example 5B, (S)-methyl 2-((2-aminopyrido[3,2-d]pyrimidin-4-yl)amino)pentanoate] | > 50 | 41 | > 50 |  |  |  |
| CCCC[C@H](CO)Nc1nc(N)nc2ccc(C)nc12 [Example 39C, (R)-2-((2-amino-6-methylpyrido[3,2-d]pyrimidin-4-yl)amino)hexan-1-ol] | 41.5 | > 50 | > 50 |  |  |  |
| CCCC[C@@](C)(CO)Nc1nc(N)nc2cccnc12 [Example 60, (S)-2-((2-aminopyrido[3,2-d]pyrimidin-4-yl)amino)-2-methylhexan-1-ol] | 2.3 | 7.9 | 2.6 |  |  |  |
| CCCC[C@H](CO)Nc1nc(N)nc2ccccc12 [Example 47B, (R)-2-((2-aminoquinazolin-4-yl)amino)hexan-1-ol] | 2 | > 50 | 2.7 |  |  |  |
| CCC[C@H](Nc1nc(N)nc2cccnc12)C(=O)NCc1ccccn1 [Example 37, (S)-2-((2-aminopyrido[3,2-d]pyrimidin-4-yl)amino)-N-(pyridin-2-ylmethyl)pentanamide] | > 50 | > 50 | > 50 |  |  |  |
| CCCC[C@@H](Nc1nc(N)nc2cccnc12)[C@@H](O)C(F)(F)F [Example 89, (2R,3R)-3-((2-aminopyrido[3,2-d]pyrimidin-4-yl)amino)-1,1,1-trifluoroheptan-2-ol] | 1.7 | > 50 | 2.2 |  |  |  |
| CCCCC[C@H](CO)Nc1nc(N)nc2cccnc12 [Example 75, (R)-2-((2-aminopyrido[3,2-d]pyrimidin-4-yl)amino)heptan-1-ol] | 3.3 | 20.3 | 4 |  |  |  |
| CCCC[C@](C)(CO)Nc1nc(N)nc2cc(F)cnc12 [Example 98, (R)-2-((2-amino-7-fluoropyrido[3,2-d]pyrimidin-4-yl)amino)-2-methylhexan-1-ol] | 0.23 | 134 | 0.24 |  |  |  |
| CCCC[C@](C)(CNC(C)=O)Nc1nc(N)nc2cc(C)cnc12 [Example 66, (R)—N-(2-((2-amino-7-methylpyrido[3,2-d]pyrimidin-4-yl)amino)-2-methylhexyl)acetamide] | 0.03 | 1.6 | 0.04 |  |  |  |
| CCCCNc1nc(N)nc2c(C)ccnc12 [Example 25E, N^4-butyl-8-methylpyrido[3,2-d]pyrimidine-2,4-diamine] | 19.7 | 12.3 | 20 |  |  |  |
| CCCC[C@H](CO)Nc1nc(N)nc2c(C)ccnc12 [Example 57, (R)-2-((2-amino-8-methylpyrido[3,2-d]pyrimidin-4-yl)amino)hexan-1-ol] | 9.7 | > 50 | 11 |  |  |  |
| CCCC[C@H](CN)Nc1nc(N)nc2cccnc12 [Example 50, (R)—N^4-(1-aminohexan-2-yl)pyrido[3,2-d]pyrimidine-2,4-diamine] | 23.1 | > 50 | 26.9 |  |  |  |
| Nc1nc(NCCO)c2ncccc2n1 [Example 12, 2-((2-aminopyrido[3,2-d]pyrimidin-4-yl)amino)ethanol] | > 50 | > 50 | > 50 |  |  |  |
